Patent US7332482B2, “Method for treating benign prostatic hyperplasia” (BioXell S.p.A., priority 2003, dated 2008)
Entries after “also recorded” stand apart in the source; their conditions may differ.

Legend:
[1] = system: prostate volume in patients with BPH; test: Randomised double blind placebo controlled study in patients with BPH; assay type: in vivo, human
Method: A randomised double blind placebo controlled parallel group study was performed to determine the effect of Compound A (1-alpha-fluoro-25-hydroxy-16,23E-diene-26,27-bishomo-20-epi-cholecalciferol) in patients with BPH.
The principal inclusion criterion was that male patients be diagnosed with BPH and have prostate volume >40 ml as determined by transrectal ultrasound (TRUS).
Statistical methods: primary efficacy analyses were planned on Per-Protocol (PP) Population and, as support, the same analyses were to be done on Intent-to-treat population. Patients evaluatable for the Per-Protocol analysis were all randomized patients compliant to protocol criteria who completed the whole course of study without major protocol violations and have valid assessments of prostate volume. Patients valid for intent-to-treat (ITT) population were all randomized patients who received at least one dose of trial medication and for whom the prostate volume at baseline and at 12 weeks visit were available.
All patients randomized who took at least one dose of study drug were evaluated for safety analysis.
The primary efficacy variable was the percentage change of prostate volume, measured by centralized MRI axial scanning. An ANOVA model was used for the analysis, with treatment and center as fixed effects.
Study participants received 150 μg capsule (as per Example 4A with drug omitted in the case of placebo) once daily in the morning. The treatment period was 12 weeks.

bladder strips = test: In vitro contractility of bladder strips from BOO rats; set-up: species or system rat; details: strips from treated rats
Method: After completion of the cystometries, the rats were sacrificed by carbon monoxide asphyxiation followed by exsanguination. The abdomen was accessed through a lower midline incision whereafter the symphysis was opened. The bladder was carefully dissected free, and immediately placed in chilled Krebs solution, and strip preparations were dissected.
The bladder and urethra were separated at the level of the bladder neck, and semicircular strips were prepared from the middle third of the detrusor (1×2×5 mm). All preparations were used immediately after removal.
The strips were transferred to 5 ml tissue baths containing Krebs solution. The Krebs solution was maintained at 37° C. and bubbled continuously with a mixture of 95% O2 and 5% CO2, resulting in a pH of 7.4. The strips were suspended between two L-shaped hooks by means of silk ligatures. One hook was connected to a movable unit allowing adjustment of passive tension, and the other to a Grass FT03C (Grass Instruments Co, MA, USA) force transducer. Isometric tension was recorded using a Grass polygraph (7D). After mounting, the strips were stretched to a passive tension of 4 mN (the same tension for all preparations) and allowed to equilibrate for 45-60 min before further experiments were performed.
Electrical field stimulation (EFS) was accomplished by means of two platinum electrodes placed on either side of the preparations, and was performed using a Grass S48 or S88 stimulator, delivering single square wave pulses at selected frequencies. The train duration was 5 s, the pulse duration 0.8 ms, and the stimulation interval 2 min. The polarity of the electrodes was shifted after each pulse by means of a polarity changing unit.
Each experiment was started by exposing the preparations to a high K^+ (124 mM) Krebs solution until two reproducible contractions are obtained. […]

human bladder cells = test: Bladder cell growth, basal and testosterone-stimulated; assay type: cell-based
rat ventral prostate = test: Ventral prostate growth in intact adult rats
Excerpt: Rat ventral prostate glands were rapidly excised out, weighed and quickly frozen in dry ice.

5α reductase type 2 = target: T1, 5α reductase type 2 (Homo sapiens, UniProt P31213); test: 5α reductase inhibition test in CHO 1829 cells; assay type: cell-based; details: 10^−9 to 10^−5 M
T1 construct: host or cells: CHO 1829
T1 sequence (P31213 1-254): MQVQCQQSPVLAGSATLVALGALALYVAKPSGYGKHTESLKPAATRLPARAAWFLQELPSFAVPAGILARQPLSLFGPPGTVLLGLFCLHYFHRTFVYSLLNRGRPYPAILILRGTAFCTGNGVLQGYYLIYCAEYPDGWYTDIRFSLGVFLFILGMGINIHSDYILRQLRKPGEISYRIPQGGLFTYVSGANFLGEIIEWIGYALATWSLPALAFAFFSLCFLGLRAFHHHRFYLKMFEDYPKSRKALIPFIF
Method: CHO-1827 and CHO-1829 cells, transfected with 5α reductase type 1 (5αR-1) or type 2 (5αR-2), respectively (see Steers W. Urology (2001) 58 p 17-24), were maintained in Ham's F12 medium supplemented with 5% FCS.
5α reductase inhibition assay was performed using CHO 1827 cells, transfected with 5αR-1, or CHO 1829 cells, transfected with 5αR-2, as described (see Guarna A, et al. Journal of Medicinal Chemistry (2000) 43 3718-3735.). Compound A was added in a concentration range from 10^−9 to 10^−5 M, using finasteride as a control inhibitor in each experiment.

prostate = test: 9-month toxicity study in male beagle dogs (prostate weight); assay type: in vivo, dog
Method: A 9-month toxicity study was carried out in four groups of male beagle dogs, which were treated by daily oral gavage with 0.5 μg, 1.5 μg and 5 μg/kg body weight/day of Compound A (in vehicle Miglyol 812) or with vehicle alone. This treatment was followed by a 2-month recovery period for the group receiving the highest dose, 5 μg, after which prostate weights was measured.

C=C1/C(=C\C=C2/CCC[C@]3(C)C([C@@H](C)C/C=C/C(O)(CC)CC)=CC[C@@H]23)C[C@@H](O)C[C@@H]1F [Compound A, 1-alpha-fluoro-25-hydroxy-16,23E-diene-26,27-bishomo-20-epi-cholecalciferol]
severe adverse events ([1]; 12 weeks): no severe adverse event was reported
proportion of responders ([1]; ITT population): 28.8%
reduction of prostate volume vs placebo ([1]; ITT population, axial scanning): more effective than placebo
mean difference of prostate volume vs baseline in non responder patients ([1]; PP population): 3.93±0.8
mean difference of prostate volume vs baseline in unchanged patients ([1]; PP population): −0.35±2.3
mean reduction of prostate volume vs baseline in responder patients ([1]; PP population): −6.88±2.5
percentage change of prostate volume, paraxial acquisition ([1]; PP population): −1.30±6.9%
percentage change of prostate volume, transitional scanning ([1]; PP population): −0.22±9.6%
proportion of patients not responder ([1]; PP population): 7.5%
proportion of responders ([1]; PP population): 27.5%
proportion of unchanged patients ([1]; PP population): 65%
percentage change in prostate volume, axial scanning ([1]; PP population, 150 μg once daily, 12 weeks, MRI): −1.89±5.2%
estimate of difference between treatments (Compound A minus placebo), percentage change in prostate volume ([1]; PP population, axial scanning, 95% confidence limit −9.54 and −4.94): −7.24
number of patients with adverse events related to treatment ([1]; safety population): 3
patients with adverse events related to treatment ([1]; safety population): 5.26%
number of patients with at least one adverse event ([1]; safety population, 57 randomised): 17
calciuria values over the course of the study ([1]; vs Placebo group): did not differ significantly
response of bladder strips to EFS (bladder strips): beneficial effect
response of bladder strips to carbachol (bladder strips): beneficial effect
K response of bladder strips (bladder strips; high K+ 124 mM): beneficial effect
inhibition of basal and testosterone-stimulated growth of bladder cells (human bladder cells): effective in inhibiting
effect on bladder cell growth compared with finasteride (human bladder cells; T 10 nM, F 1 nM): significantly greater than that of the anti-androgen finasteride
maximal reduction of ventral prostate weight (rat ventral prostate; one month oral, 300 μg/Kg): 30%
effect on ventral prostate weight (rat ventral prostate; one-month oral treatment, 10-300 μg/Kg): significantly decreased
interference with 5α reductase type 2 (5α reductase type 2): did not interfere with either isoenzyme up to the micromolar range
prostate weight after recovery (prostate; 5 μg/kg/day 9 months then 2-month recovery, vs vehicle): reduction of prostate weight
toxicity data (prostate; 9 months daily oral gavage): entirely favourable toxicity data
prostate weight at end of treatment (prostate; 9 months daily oral gavage, 0.5, 1.5, 5 μg/kg/day, vs vehicle): lower prostate weight; also recorded: clear reduction of prostate weight
